Data published in the supplement of paper PMC6045584.
± gives the standard deviation of the averaged measurements.

What was measured:
[1] = compound: NC1(c2ccc(-c3nc4ccn5c(=O)[nH]nc5c4cc3-c3ccccc3)cc2)CCC1 [MK2206]; assay: surviving fraction relative to DMSO-only wells; higher = less growth inhibition; details: exposure time: 5 days
Summary of the method: (§1)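 After seeding at 250–500 cells per well in 384-well plates and a 24-hour wait, log-phase tumour cell lines were exposed without interruption for five days to inhibitors at 0.5, 1, 5, 10, 50, 100, 500 and 1000 nM. CellTiter-Glo luminescence was recorded after 10 minutes at room temperature. Viability is reported as surviving fraction, the luminescence normalised to the median of DMSO-only wells.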

[2] = compound: CCN(CC)CCNC(=O)c1c(C)[nH]c(/C=C2\C(=O)Nc3ccc(F)cc32)c1C [SUNITINIB]; assay: as above; details: exposure time: 5 days
Summary of the method: as §1

Test System	surviving fraction ([1]; 0.5 nM)	surviving fraction ([1]; 1 nM)	surviving fraction ([1]; 5 nM)	surviving fraction ([1]; 10 nM)	surviving fraction ([1]; 50 nM)	surviving fraction ([1]; 100 nM)	surviving fraction ([1]; 500 nM)	surviving fraction ([1]; 1000 nM)	surviving fraction ([2]; 0.5 nM)	surviving fraction ([2]; 1 nM)	surviving fraction ([2]; 50 nM)	surviving fraction ([2]; 100 nM)	surviving fraction ([2]; 500 nM)	surviving fraction ([2]; 1000 nM)	surviving fraction ([2]; 5 nM)	surviving fraction ([2]; 10 nM)
22RV1 PROSTATE	1.04 ± 0.045	0.987 ± 0.09	0.87 ± 0.09	0.921 ± 0.17	0.707 ± 0.12	0.762 ± 0.064	0.554 ± 0.05	0.582 ± 0.0085	0.975 ± 0.028	0.952 ± 0.021	0.937 ± 0.1	0.932 ± 0.027	0.739 ± 0.049	0.41 ± 0.029	–	–
93VU HEADNECK	1.06 ± 0.076	1.07 ± 0.14	1.1 ± 0.093	1.15 ± 0.048	1.02 ± 0.045	0.999 ± 0.11	0.789 ± 0.085	0.649 ± 0.038	0.817 ± 0.07	0.819 ± 0.059	1.11 ± 0.055	0.93 ± 0.057	0.261 ± 0.026	0.158 ± 0.025	0.85 ± 0.03	0.823 ± 0.078
143B BONE	0.912 ± 0.012	0.969 ± 0.042	0.974 ± 0.082	1.1 ± 0.1	0.957 ± 0.024	0.959 ± 0.064	0.96 ± 0.034	0.939 ± 0.033	0.982 ± 0.044	1.01 ± 0.026	1.01 ± 0.019	1.008 ± 0.0042	0.824 ± 0.067	0.461 ± 0.055	1.01 ± 0.022	1.02 ± 0.035
A549 LUNG	1.05 ± 0.023	1.1 ± 0.028	1.06 ± 0.037	1.081 ± 0.0074	1.06 ± 0.017	1.08 ± 0.026	1.06 ± 0.024	1.09 ± 0.042	0.922 ± 0.021	0.907 ± 0.029	0.991 ± 0.026	–	1.04 ± 0.014	1.03 ± 0.02	0.903 ± 0.013	0.89 ± 0.031
ASKA SYNOVIAL	0.991 ± 0.089	1.06 ± 0.014	1 ± 0.04	1.02 ± 0.16	0.771 ± 0.038	0.724 ± 0.064	0.482 ± 0.018	0.481 ± 0.022	0.864 ± 0.079	0.768 ± 0.059	0.867 ± 0.043	0.659 ± 0.04	0.441 ± 0.034	0.104 ± 0.0093	0.858 ± 0.028	0.328 ± 0.056
BT20 BREAST	1.14 ± 0.045	1.15 ± 0.07	1.05 ± 0.034	1.01 ± 0.078	1.11 ± 0.12	1.16 ± 0.052	1.39 ± 0.066	1.16 ± 0.05	0.794 ± 0.14	0.732 ± 0.05	1 ± 0.16	1.23 ± 0.23	1.31 ± 0.2	1.21 ± 0.16	0.757 ± 0.081	0.783 ± 0.14
BT549 BREAST	1.07 ± 0.092	1.06 ± 0.048	0.982 ± 0.15	1.06 ± 0.07	0.837 ± 0.05	0.833 ± 0.091	0.616 ± 0.078	0.46 ± 0.043	0.8 ± 0.11	0.861 ± 0.048	1.11 ± 0.13	1.12 ± 0.16	1.19 ± 0.11	0.785 ± 0.069	0.854 ± 0.065	0.794 ± 0.13
CADOES1 SOFT TISSUE	1.02 ± 0.12	0.925 ± 0.099	0.915 ± 0.097	0.926 ± 0.036	0.828 ± 0.088	0.815 ± 0.092	0.711 ± 0.077	0.591 ± 0.071	–	0.976 ± 0.12	0.885 ± 0.086	1.03 ± 0.032	–	0.609 ± 0.11	0.892 ± 0.044	0.967 ± 0.083
CAL51 BREAST	0.986 ± 0.05	1.09 ± 0.079	1.06 ± 0.031	1.02 ± 0.035	0.996 ± 0.043	0.993 ± 0.072	0.731 ± 0.027	0.56 ± 0.03	0.886 ± 0.047	0.895 ± 0.012	–	1.01 ± 0.035	0.52 ± 0.031	0.202 ± 0.031	0.94 ± 0.011	0.934 ± 0.053
CAL120 BREAST	0.976 ± 0.071	0.977 ± 0.062	0.991 ± 0.068	1.01 ± 0.06	0.966 ± 0.051	0.951 ± 0.031	0.859 ± 0.038	0.823 ± 0.043	0.881 ± 0.021	0.882 ± 0.036	0.891 ± 0.023	0.891 ± 0.038	0.64 ± 0.039	0.386 ± 0.037	0.876 ± 0.047	–
CASKI CERVIX	0.905 ± 0.04	0.97 ± 0.055	0.951 ± 0.065	0.88 ± 0.011	0.736 ± 0.055	0.627 ± 0.039	0.44 ± 0.047	0.36 ± 0.022	0.757 ± 0.041	0.731 ± 0.072	0.891 ± 0.088	0.717 ± 0.039	0.166 ± 0.0025	0.0627 ± 0.004	0.792 ± 0.052	0.763 ± 0.064
CHLA90 AUTONOMIC GANGLIA	1.04 ± 0.058	1.01 ± 0.037	0.944 ± 0.013	0.929 ± 0.025	0.945 ± 0.024	0.997 ± 0.1	0.9213 ± 0.0085	0.947 ± 0.053	0.885 ± 0.043	0.803 ± 0.062	–	0.776 ± 0.047	0.779 ± 0.015	0.201 ± 0.02	0.805 ± 0.025	0.248 ± 0.019
CME SYNOVIAL	1.25 ± 0.18	1.22 ± 0.043	1.35 ± 0.13	1.35 ± 0.099	1.18 ± 0.085	1.23 ± 0.18	1.13 ± 0.099	0.901 ± 0.093	0.928 ± 0.17	0.551 ± 0.019	–	0.82 ± 0.032	0.767 ± 0.1	0.0447 ± 0.0074	–	0.036 ± 0.0027
COLO320DM LARGE INTESTINE	0.985 ± 0.038	1.12 ± 0.11	1.11 ± 0.052	1.08 ± 0.066	1.03 ± 0.15	0.969 ± 0.059	0.707 ± 0.047	0.557 ± 0.056	–	0.921 ± 0.045	0.929 ± 0.057	0.871 ± 0.075	0.324 ± 0.026	0.115 ± 0.011	0.957 ± 0.063	0.369 ± 0.055
DU4475 BREAST	1.07 ± 0.035	1.08 ± 0.094	0.989 ± 0.11	1 ± 0.015	0.828 ± 0.1	0.784 ± 0.019	0.469 ± 0.047	0.444 ± 0.015	0.742 ± 0.17	0.797 ± 0.12	0.668 ± 0.12	0.649 ± 0.21	0.428 ± 0.18	0.1 ± 0.029	0.716 ± 0.14	0.771 ± 0.18
H23 LUNG	0.95 ± 0.072	1.04 ± 0.015	1.017 ± 0.008	1.03 ± 0.053	0.911 ± 0.043	0.883 ± 0.046	0.776 ± 0.067	0.6663 ± 0.0061	0.953 ± 0.023	0.918 ± 0.013	–	0.829 ± 0.014	0.598 ± 0.06	0.368 ± 0.021	–	0.885 ± 0.045
HCC38 BREAST	1.36 ± 0.11	1.33 ± 0.26	1.36 ± 0.073	1.32 ± 0.12	1.32 ± 0.23	1.15 ± 0.083	1.11 ± 0.048	0.898 ± 0.12	0.845 ± 0.24	0.893 ± 0.22	1.16 ± 0.1	1.18 ± 0.11	1.04 ± 0.22	0.76 ± 0.21	0.966 ± 0.15	–
HCC70 BREAST	1.03 ± 0.063	1.1 ± 0.08	1.13 ± 0.11	1.1 ± 0.12	0.93 ± 0.076	0.869 ± 0.094	0.39 ± 0.033	0.312 ± 0.014	1.01 ± 0.029	–	–	–	1.15 ± 0.11	–	1 ± 0.096	0.904 ± 0.045
HCC78 LUNG	0.785 ± 0.17	0.975 ± 0.05	1.12 ± 0.2	0.998 ± 0.21	0.848 ± 0.073	0.529 ± 0.13	0.33 ± 0.14	0.192 ± 0.076	0.831 ± 0.076	0.925 ± 0.054	1.24 ± 0.33	1.34 ± 0.44	1.67 ± 0.23	0.633 ± 0.1	0.95 ± 0.099	0.46 ± 0.089
HCC202 BREAST	1.07 ± 0.091	1.08 ± 0.12	1.2 ± 0.16	1.2 ± 0.074	0.699 ± 0.37	0.688 ± 0.035	0.238 ± 0.012	0.238 ± 0.0064	0.879 ± 0.093	0.806 ± 0.23	1.26 ± 0.17	–	0.714 ± 0.15	0.639 ± 0.06	1.29 ± 0.32	0.801 ± 0.19
HCC1395 BREAST	1.08 ± 0.18	0.985 ± 0.056	1.09 ± 0.16	1.04 ± 0.19	0.934 ± 0.057	1.1 ± 0.13	0.89 ± 0.082	0.817 ± 0.15	0.977 ± 0.037	0.829 ± 0.066	1.09 ± 0.11	1.06 ± 0.17	0.971 ± 0.046	1.01 ± 0.12	0.9396 ± 0.0017	0.969 ± 0.094
